Data reported in patent US12421230B2, “Tricyclic heteroaryl compounds useful as IRAK4 inhibitors” (BRISTOL-MYERS SQUIBB COMPANY, priority 2020, dated 2025).

Assays:
Human whole blood = assay: IRAK4 Whole Blood Assay; assay type: cell-based; conditions: stimulated with TLR2 agonist lipoteichoic acid 10 μg/mL for 5 hours, IL-6 levels
Description: Human whole blood containing the anti-coagulant ACD-A was plated in 384-well plate (25 μL/well) and incubated with compounds for 60 minutes at 37° C. in a 5% CO2 incubator. The blood was stimulated with a TLR2 agonist, 10 μg/mL final concentration of lipoteichoic acid (Invivogen, San Diego, CA) in 25 μL RPMI (Gibco) for 5 hours in a 5% CO2 incubator. At the end of the incubation, plates were centrifuged at 2300 rpm for 5 minutes. Supernatants were harvested and analyzed for IL-6 levels by Flow Cytometry beads assay (BD Biosciences, San Jose, CA).

IRAK4 = target: T1, IRAK4 (Homo sapiens, UniProt Q9NWZ3); assay: IRAK4 Inhibition Assay; assay type: biochemical; conditions: ATP 500 μM; fluoresceinated peptide 1.5 μM; IRAK4 0.6 nM; 60 min room temperature; Caliper LABCHIP
T1 sequence (Q9NWZ3 1-460): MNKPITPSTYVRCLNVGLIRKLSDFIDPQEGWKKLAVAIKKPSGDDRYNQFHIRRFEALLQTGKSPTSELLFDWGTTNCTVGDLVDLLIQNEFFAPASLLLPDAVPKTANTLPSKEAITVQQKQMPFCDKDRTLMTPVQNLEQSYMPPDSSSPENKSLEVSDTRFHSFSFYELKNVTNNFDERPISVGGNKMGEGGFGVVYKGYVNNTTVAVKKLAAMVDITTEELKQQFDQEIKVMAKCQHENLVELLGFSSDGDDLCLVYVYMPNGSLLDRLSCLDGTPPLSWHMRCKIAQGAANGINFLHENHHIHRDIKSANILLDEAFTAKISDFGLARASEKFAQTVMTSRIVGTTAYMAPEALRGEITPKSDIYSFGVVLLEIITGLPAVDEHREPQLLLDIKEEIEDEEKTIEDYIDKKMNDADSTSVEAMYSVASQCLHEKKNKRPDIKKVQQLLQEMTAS
Description: The assays were performed in U-bottom 384-well plates. The final assay volume was 30 μL prepared from 15 μL additions of enzyme and substrates (fluoresceinated peptide and ATP) and test compounds in assay buffer (20 mM HEPES pH 7.2, 10 mM MgCl2, 0.015% Brij 35 and 4 mM DTT). The reaction was initiated by the combination of IRAK4 with substrates and test compounds. The reaction mixture was incubated at room temperature for 60 min. and terminated by adding 45 μL of 35 mM EDTA to each sample. The reaction mixture was analyzed on the Caliper LABCHIP® 3000 (Caliper, Hopkinton, MA) by electrophoretic separation of the fluorescent substrate and phosphorylated product. Inhibition data were calculated by comparison to no enzyme control reactions for 100% inhibition and vehicle-only reactions for 0% inhibition. The final concentrations of reagents in the assays are ATP, 500 μM; FL-IPTSPITTTYFFFKKK peptide 1.5 μM; IRAK4, 0.6 nM; and DMSO, 1.6%.

| Compound | EC50 (Human whole blood) | IC50 (IRAK4) |
| --- | --- | --- |
| CC(=O)NC(C)(C)CCNC(=O)c1cnc2c([nH]c3cc(C#N)ccc32)c1NC(C)C [Example 60, N-(3-acetamido-3-methylbutyl)-7-cyano-4-(isopropylamino)-5H-pyrido[3,2-b]indole-3-carboxamide] | > 20000 nM | 3.8 nM |
| CC(C)Nc1c(C(=O)NCCN2CCS(=O)(=O)CC2)cnc2c1[nH]c1cc(C#N)ccc12 [Example 62, 7-cyano-N-(2-(1,1-dioxidothiomorpholino)ethyl)-4-(isopropylamino)-5H-pyrido[3,2-b]indole-3-carboxamide] | 12300 nM | 3.3 nM |
| CC(C)Nc1c(C(=O)NCCC(F)F)cnc2c1[nH]c1cc(C#N)ccc12 [Example 31, 7-cyano-N-(3,3-difluoropropyl)-4-(isopropylamino)-5H-pyrido[3,2-b]indole-3-carboxamide] | > 20000 nM | 9.5 nM |
| CC(C)Nc1c(C(=O)NCc2cocn2)cnc2c1[nH]c1cc(C#N)ccc12 [Example 14, 7-cyano-4-(isopropylamino)-N-(oxazol-4-ylmethyl)-5H-pyrido[3,2-b]indole-3-carboxamide] | 3500 nM | 19 nM |
| CC(C)Nc1c(C(=O)NCCC(C)(C)NC(=O)C2CC2)cnc2c1[nH]c1cc(C#N)ccc12 [Example 59, 7-cyano-N-(3-(cyclopropanecarboxamido)-3-methylbutyl)-4-(isopropylamino)-5H-pyrido[3,2-b]indole-3-carboxamide] | > 10000 nM | 5.4 nM |
| CC(C)(O)[C@H](F)CNC(=O)c1cnc2c([nH]c3cc(C#N)ccc32)c1Nc1cnn(CC(F)F)c1 [Example 23, (R)-7-cyano-4-((1-(2,2-difluoroethyl)-1H-pyrazol-4-yl)amino)-N-(2-fluoro-3-hydroxy-3-methylbutyl)-5H-pyrido[3,2-b]indole-3-carboxamide] | > 10000 nM | 15 nM |
| CC(C)(O)CCNC(=O)c1cnc2c([nH]c3cc(C#N)ccc32)c1N [Example 54, 4-amino-7-cyano-N-(3-hydroxy-3-methylbutyl)-5H-pyrido[3,2-b] indole-3-carboxamide] | > 10000 nM | 14 nM |
| CC(C)Nc1c(C(=O)NCCC(F)(F)F)cnc2c1[nH]c1cc(C#N)ccc12 [Example 27, 7-cyano-4-(isopropylamino)-N-(3,3,3-trifluoropropyl)-5H-pyrido[3,2-b]indole-3-carboxamide] | > 10000 nM | 13 nM |
| CC(C)Nc1c(-c2cn(CC3CC3)nn2)cnc2c1[nH]c1cc(C#N)ccc12 [Example 74, 3-(1-(cyclopropylmethyl)-1H-1,2,3-triazol-4-yl)-4-(isopropylamino)-5H-pyrido[3,2-b] indole-7-carbonitrile] | > 10000 nM | 9.2 nM |
| CC(C)(O)[C@H](F)CNC(=O)c1cnc2c([nH]c3cc(C#N)ccc32)c1NC1CC(F)(F)C1 [Example 3, (R)-7-cyano-4-((3,3-difluorocyclobutyl)amino)-N-(2-fluoro-3-hydroxy-3-methylbutyl)-5H-pyrido[3,2-b]indole-3-carboxamide] | 2470 nM | 19 nM |
| CC(C)(O)[C@H](F)CNC(=O)c1cnc2c([nH]c3cc(C#N)ccc32)c1NC1CCC1 [Example 4, (R)-7-cyano-4-(cyclobutylamino)-N-(2-fluoro-3-hydroxy-3-methylbutyl)-5H-pyrido[3,2-b]indole-3-carboxamide] | 1990 nM | 2 nM |
| CC(C)Nc1c(-c2cc(C3CCCCN3)no2)cnc2c1[nH]c1cc(C#N)ccc12 (stereo not shown) [Example 80, 4-(isopropylamino)-3-(3-(piperidin-2-yl)isoxazol-5-yl)-5H-pyrido[3,2-b]indole-7-carbonitrile] | 3310 nM | 18 nM |

These reach a lower EC50 (Human whole blood). Values come first.

| EC50 (Human whole blood) | IC50 (IRAK4) | Compound |
| --- | --- | --- |
| 1600 nM | 6.3 nM | CC(C)(O)CCNC(=O)c1cnc2c([nH]c3cc(C#N)ccc32)c1NC(C)(C)C [Example 40, 4-(tert-butylamino)-7-cyano-N-(3-hydroxy-3-methylbutyl)-5H-pyrido[3,2-b]indole-3-carboxamide] |
| 1550 nM | 16 nM | CC(C)Nc1c(C(=O)NCC(F)(F)CN)cnc2c1[nH]c1cc(C#N)ccc12 [Example 51, N-(3-amino-2,2-difluoropropyl)-7-cyano-4-(isopropylamino)-5H-pyrido[3,2-b]indole-3-carboxamide] |
| 1440 nM | 3.8 nM | CC(C)Nc1c(C(=O)NCCC(C)(C)O)cnc2c1[nH]c1cc(C#N)ccc12 [Example 5, 7-cyano-N-(3-hydroxy-3-methylbutyl)-4-(isopropylamino)-5H-pyrido[3,2-b]indole-3-carboxamide] |
| 1300 nM | 1.6 nM | CCNc1c(C(=O)NC[C@@H](F)C(C)(C)O)cnc2c1[nH]c1cc(C#N)ccc12 [Example 2, (R)-7-cyano-4-(ethylamino)-N-(2-fluoro-3-hydroxy-3-methylbutyl)-5H-pyrido[3,2-b]indole-3-carboxamide] |
| 1240 nM | 8.6 nM | CC(C)Nc1c(C(=O)NC[C@@H](F)C(C)(C)O)cnc2c1[nH]c1cc(-c3cncs3)ccc12 [Example 66, (R)—N-(2-fluoro-3-hydroxy-3-methylbutyl)-4-(isopropylamino)-7-(thiazol-5-yl)-5H-pyrido[3,2-b]indole-3-carboxamide] |
| 1050 nM | 14 nM | CC(C)Nc1c(C(=O)NCc2ncn[nH]2)cnc2c1[nH]c1cc(C#N)ccc12 [Example 20, N-((1H-1,2,4-triazol-5-yl)methyl)-7-cyano-4-(isopropylamino)-5H-pyrido[3,2-b] indole carboxamide] |
| 990 nM | 11 nM | CC(C)Nc1c(-c2cc(C3CCOCC3)no2)cnc2c1[nH]c1cc(C#N)ccc12 [Example 77, 4-(isopropylamino)-3-(3-(tetrahydro-2H-pyran-4-yl)isoxazol-5-yl)-5H-pyrido[3,2-b]indole-7-carbonitrile] |
| 930 nM | 1.5 nM | CC(C)Nc1c(-c2cn(C3CCNCC3)nn2)cnc2c1[nH]c1cc(C#N)ccc12 [Example 75, 4-(isopropylamino)-3-(1-(piperidin-4-yl)-1H-1,2,3-triazol-4-yl)-5H-pyrido[3,2-b]indole-7-carbonitrile] |
| 770 nM | 3 nM | CC(C)Nc1c(C(=O)NCCN2CCOCC2)cnc2c1[nH]c1cc(C#N)ccc12 [Example 35, 7-cyano-4-(isopropylamino)-N-(2-morpholinoethyl)-5H-pyrido[3,2-b]indole-3-carboxamide] |
| 740 nM | 2.5 nM | CC(C)Nc1c(C(=O)NCCC2(O)CC(F)(F)C2)cnc2c1[nH]c1cc(C#N)ccc12 [Example 43, 7-cyano-N-(2-(3,3-difluoro-1-hydroxycyclobutyl)ethyl)-4-(isopropylamino)-5H-pyrido[3,2-b]indole-3-carboxamide] |
| 580 nM | 3.4 nM | CC(C)Nc1c(C(=O)NCCC2CC2)cnc2c1[nH]c1cc(C#N)ccc12 [Example 34, 7-cyano-N-(2-cyclopropylethyl)-4-(isopropylamino)-5H-pyrido[3,2-b]indole-3-carboxamide] |
| 510 nM | 3.1 nM | CC(C)Nc1c(C(=O)NCCC(C)(C)F)cnc2c1[nH]c1cc(C#N)ccc12 [Example 38, 7-cyano-N-(3-fluoro-3-methylbutyl)-4-(isopropylamino)-5H-pyrido[3,2-b]indole-3-carboxamide] |
| 510 nM | 3.1 nM | CC(C)(O)[C@H]1C[C@H](NC(=O)c2cnc3c([nH]c4cc(C#N)ccc43)c2NC2CC2)C1 [Example 44, 7-cyano-4-(cyclopropylamino)-N-((1R,3R)-3-(2-hydroxypropan-2-yl)cyclobutyl)-5H-pyrido[3,2-b]indole-3-carboxamide] |
| 430 nM | 2 nM | CC(C)Nc1c(C(=O)NC[C@@H](F)C(C)(C)O)cnc2c1[nH]c1cc(C#N)ccc12 [Example 1, (R)-7-cyano-N-(2-fluoro-3-hydroxy-3-methylbutyl)-4-(isopropylamino)-5H-pyrido [3,2-b]indole-3-carboxamide] |
